Data from PMC10643673, “An immunomodulating peptide with potential to suppress tumour growth and autoimmunity” (Scientific Reports, 2023).
Where a SMILES comes first, the peptide text is derived from it. [ ]: non-standard residue; d: D form. Gly(decyl) = CCCCCCCCCC[C@H](N)C(=O)O

Key:
[1] = system: splenocytes / CD4+ T cells; test: Splenocytes from LLC lung metastasis model, fresh or cultured overnight with/without TCR stimulation; format: in vivo, mouse; conditions: peptide- vs vehicle-treated mice; after 24 h
Method: Spleens were collected and processed into a single cell suspension. Fresh splenocytes were assessed by means of flow cytometry with CD28 (BV421) and 2 × 10^5 cells per well were then cultured overnight with or without TCR stimulation (anti-CD3 alone or in combination with anti-CD28 both at 2 µg/mL, plate bound overnight in PBS at 4 °C). After overnight culture cell free supernatants were collected and assessed for IFN-γ and IL-2 by ELISA (eBioscience Kits) and set up in technical triplicate. Cells before and after stimulation were stained for flow cytometry (viability, CD4, CD28 (BV711), IL-12Rβ1 and IL-12Rβ2.

[2] = system: splenocyte-derived CD4+ T cells and NK cells; conditions: mouse, in vivo
Method: LLC cells sourced from ATCC. The Lewis lung cancer cell line was cultured to approximately 70% confluency before cells were collected and resuspended at 5 × 10^6 /mL in sterile HBSS. […] were injected subcutaneously with 5 × 10^5 cells (100 µL) into the right flank. Mice were randomly assigned to treatment groups 5 days after tumour cell implantation such that the average tumour size was approximately equal between the two groups. Test substance IK14004 or vehicle were administered twice weekly (Monday and Thursday) via intraperitoneal (i.p.) injections, from day 5 post tumour cell implantation, until the tumours reached an average of 10 mm in diameter in the vehicle treated group. Tumours were measured three times each week using digital callipers and once the mean tumour size for the vehicle group reached 10 mm in diameter, mice were sacrificed by cervical dislocation and tumour and spleens collected. Spleens were processed into single cell suspensions and the red blood cells lysed. Fresh splenocyte suspensions were assessed by trypan blue exclusion. From fresh splenocyte suspensions, 1 × 10^6 viable cells were stained using a viability dye (Flexible Viability Dye eFluorTM 780; ThermoFisher), CD4 (BV605), NK1.1 (BV510), CD25 (AF488), IL-12Rβ1 (PE) and IL-12Rβ2 (APC) for flow cytometry.

[3] = system: exhausted CD4+ T cells derived from MBP-tracker mouse splenocytes; test: Murine splenocyte-derived exhausted CD4+ T cell assay; format: cell-based; conditions: highest concentration 1.25 µM
Method: Concept Life Sciences have established a proprietary method for assessing murine CD4+ T cell exhaustion in vitro using Tg4-Ly5.1 MBP-Tracker Mice obtained from the University of Edinburgh. Spleens were removed from transgenic B10PLxC57BL/6 mice and processed to generate a single cell suspension of splenocytes. Myelin basic protein (MBP)-Tracker splenocytes were resuspended at 3 × 10^6/mL and stimulated 72 h at approximately 37 °C, 5% CO2, with altered peptide ligand (APL)-MBP (to generate exhausted cells). Following stimulation, T cells were purified by Ficoll density gradient, and subsequently re-plated at 2 × 10^6/mL in 20 U/mL IL-2 for four days. At the end of this rest period, cells were resuspended (4 × 10^5/mL, final 2 × 10^4 per well) and restimulated using irradiated APCs (from B10PLxC57BL/6 mice, 4 × 10^6/mL, final concentration of 2 × 10^5 cells per well) plus a single dose of APL-MBP peptide together with IK14004 peptide for 72 h.
Supernatants were sampled from culture wells for assessment of IL-2 and IFN-γ by ELISA (eBioScience, Lot # 4280695 and Lot #. 4308729, respectively) and flow cytometry used for assessment of CD25 and Ki67 (eBioScience, Lot # 4276862 and Lot # 4296884, respectively). Anti-PD-1 and IgG2a antibodies were obtained from BioXCell.

human NK cells = test: Isolated CD3−/CD56+dim NK cell cultures, flow cytometry; format: cell-based; conditions: 24 h; all concentrations
Method: CD3−/CD56+^dim NK cell populations were isolated from PBMCs using immuno-magnetic separation (Stem cell, Lot no. 18A86421). CD56^+ NK cells were resuspended in RPMI-10 (RPMI-1640 supplemented with 10% heat inactivated FBS, 100 U/mL penicillin, 100 µg/mL streptomycin, 2 mM L-glutamine, and 50 µM β-mercaptoethanol) at 0.25 × 10^6/mL and plated at a density of 2.5 × 10^4 per well (100 µL) in 96-well, flat bottom culture plates. Purified NK cells were cultured together with either IK14004 or recombinant IL-2 (InVitrogen, Lot #223086-011) for […] at 37 °C, 5% CO2.
(§1) Staining was performed to determine cell viability (Flexible Viability Dye eFluorTM 780; ThermoFisher) and expression of extracellular/intracellular markers assessed using fluorescently-labelled antibodies against human proteins within different cell populations. […] After 24 h cells were collected and CD4+ and CD8+ T cells assessed for TCRα/β expression (PE; BioLegend). Phospho-STAT4 in was assessed in TCR-activated CD3 + T cell and PBMC cultures. […] Cells were then stained with fluorochrome conjugated anti-pSTAT4 antibody (eBioscience, Lot# 12-9044) and intracellular expression determined within CD8+ T cells by flow cytometry. Similarly, anti-CD3-stimulated PBMC cultures were exposed only to recombinant IL-12p70 (Peprotech, Lot #0617596) and pSTAT4 assessed within CD4+ /CD8+ T cell fractions. […]

[4] = system: K562 erythroleukemic cells; test: K562/PBMC co-culture cytotoxicity assay (Calcein AM release); conditions: PBMCs exposed to peptide 48 h, then 4 h co-culture at 5:1 ratio; 0.08 to 1.25 µM
Method: Human PBMCs (2.5 × 10^5 cells per well) were cultured in 96-well round-bottom tissue culture plates for 48 h at 37 °C, 5% CO2 in the presence of IK14004 and IKD14004 peptides. After peptide exposure, PBMCs were co-cultured with Calcein AM stained K562 cells (5 × 10^4/well) at a 5:1 ratio for 4 h at 37 °C, 5% CO2. For spontaneous release control Calcein AM-K562 cells alone were treated with PBS (20 µL). For maximal release control Calcein AM-K562 cells alone were treated with lysis buffer (20 µL). After 4 h culture, 150 µL supernatant were transferred to black wall plates and intensity of Calcein green fluorescence release detected using GloMax® Discover to determine percentage of specific cytotoxicity.

[5] = system: Lewis lung cancer (LLC) cells; test: Cancer cell proliferation assay (SRB); format: cell-based, mouse; conditions: 72 h, doxorubicin 2.5 µM, positive control
Method: Lewis lung cancer (LLC) cells (sourced from the American Type Culture Collection) were seeded into 96-well plates (1000 cells/well) in complete cell culture medium and allowed to attach for 24 h (37 °C, 5% CO2 in air). Next, an equal volume of either cell culture medium only, or 2 × concentration of drug dissolved in cell culture medium, was added to each of 5 replicate wells (technical replicates) to expose cells to concentrations of IK14004 in the dose range from 0 to 5 µM. Cells were cultured for 72 h in the presence of either IK14004 or Doxorubicin (2.5 µM; positive control) and then the cell culture medium was removed and the attached cells fixed in ice-cold trichloroacetic acid. Fixed cells were stained with Sulforhodamine B (SRB) and then washed with 1% acetic acid to remove unbound dye. The retained dye was solubilised in 10 mM Tris base solution and the absorbance at 550 nm was measured with the baseline (media only without cells) subtracted. The data were normalised between the maximum proliferation (100%, cells with no drug) and the starting cell density (0%, cells before addition of drug). Each experiment was performed on two independent occasions (biological replicates).

[6] = system: human PBMCs (CD4+/CD8+ T cells, NK cells); test: Anti-CD3-stimulated human PBMC cultures, flow cytometry/ELISA; format: cell-based; conditions: rIL-12p70 10 ng/mL; 72 h
Method: Preparations of peripheral blood mononuclear cells (PBMCs) and isolated T cells from buffy coat samples were performed using SepMate tubes, EasySep selection and enrichment kits, Lymphoprep, RoboSep Buffer, and EasySep magnets (STEMCELL Company). PBMCs were resuspended in RPMI-10 (RPMI-1640; ThermoFisher) supplemented with 10% heat inactivated Foetal Bovine Serum (LabTech), 100 U/mL penicillin, 100 µg/mL streptomycin (ThermoFisher), 2 mM L-glutamine (ThermoFisher), and 50 µM β-mercaptoethanol (ThermoFisher) at 1 × 10^6 cells/mL and plated at a density of 1 × 10^5 per well (100 µL) in 96-well, flat-bottom culture plates. […]
as §1, with “[…] Flow cytometry data” for “Similarly, anti-CD3-stimulated PBMC cultures”, “exported as FCS files from Attune™ NxT software” for “exposed only to recombinant IL-12p70 (Peprotech, Lot #0617596)”, “analysed using FlowJo™ software.” for “pSTAT4 assessed within CD4+ /CD8+ T cell fractions.”

Molecule: CCCCCCCCCC[C@H](NC(=O)[C@H](CCCCCCCCCC)NC(=O)[C@H](CCCCCCCCCC)NC(=O)[C@H](CCCCCCCCCC)NC(=O)[C@H](CCCNC(=N)N)NC(=O)[C@H](Cc1ccc(O)cc1)NC(=O)[C@H](CC(C)C)NC(=O)[C@@H]1CCCN1C(=O)[C@H](CC(N)=O)NC(=O)[C@H](CCCCN)NC(=O)[C@H](C)NC(=O)[C@H](CCCCN)NC(=O)[C@H](CO)NC(=O)[C@@H](N)CCCNC(=N)N)C(N)=O [IK14004, RSKAKNPLYR-(2)Adod-(2)Adod-(2)Adod-(2)Adod-amide] (H-RSKAKNPLYR[Gly(decyl)][Gly(decyl)][Gly(decyl)][Gly(decyl)]-NH2)
- viability of cultured splenocytes [1]: no differences
- viability of freshly harvested splenocytes [2]: ~100%
- visual signs of cell death at end of splenocyte culture [3]: no visual signs of cell death
- percentage of viable NK cells (human NK cells): remained unchanged
- significant K562 cytotoxicity [4]: at most concentrations

Molecule: COc1cccc2c1C(=O)c1c(O)c3c(c(O)c1C2=O)C[C@@](O)(C(=O)CO)C[C@@H]3O[C@H]1C[C@H](N)[C@H](O)[C@H](C)O1 [doxorubicin]
- proliferation of the LLC cell line [5]: total cell kill

B1: rIL-12p70: recombinant IL-12p70 (Peprotech), 10 ng/mL (protein, UniProt P29459 23-219; P29460 23-328, looked up)
Interleukin-12 subunit alpha: RNLPVATPDPGMFPCLHHSQNLLRAVSNMLQKARQTLEFYPCTSEEIDHEDITKDKTSTVEACLPLELTKNESCLNSRETSFITNGSCLASRKTSFMMALCLSSIYEDLKMYQVEFKTMNAKLLMDPKRQIFLDQNMLAVIDELMQALNFNSETVPQKSSLEEPDFYKTKIKLCILLHAFRIRAVTIDRVMSYLNAS
Interleukin-12 subunit beta: IWELKKDVYVVELDWYPDAPGEMVVLTCDTPEEDGITWTLDQSSEVLGSGKTLTIQVKEFGDAGQYTCHKGGEVLSHSLLLLHKKEDGIWSTDILKDQKEPKNKTFLRCEAKNYSGRFTCWWLTTISTDLTFSVKSSRGSSDPQGVTCGAATLSAERVRGDNKEYEYSVECQEDSACPAAEESLPIEVMVDAVHKLKYENYTSSFFIRDIIKPDPPKNLQLKPLKNSRQVEVSWEYPDTWSTPHSYFSLTFCVQVQGKSKREKKDRVFTDKTSATVICRKNASISVRAQDRYYSSSWSEWASVPCS
- percentage of pSTAT4-expressing CD8+ T cells [6]: as did the percentage of pSTAT4-expressing CD8+ T cells
- proportion of pSTAT4-expressing CD4+ T cells [6]: increased
